Test system: Gclm-KO+GBR mice
Test: MitoQ treatment of Gclm-KO+GBR mice (oxidative stress model), markers in anterior cingulate cortex
Type: in vivo
Excerpt: Treatment with MitoQ (P21-P40) in Gclm-KO mice treated with GBR12909 normalizes NIX, FUNDC1 and LC3B expression levels as well as miR-137 expression intensity when compared to values observed for wild-type mice (FIG. 7). […] Thus, MitoQ has been unexpectedly found to be useful in reversing the miR-137 overexpression, mitophagy and parvalbumin interneuron impairment induced by oxidative stress.
Example 9 relates to an animal model of oxidative stress. Oxidative stress elicits mitophagy in the anterior cingulated cortex (ACC) of Gclm-KO mice (transgenic mice carrying permanent defect in glutathione GSH synthesis). […] Because extranuclear localization of 8-oxo-dG labeling was observed, it could be surmised that mitochondrial DNA (mtDNA) was affected. […] In comparison with WT mice (Gclm-WT+PBS, wherein PBS refers to phosphate-buffered saline, a common buffer used in these experiments as vehicle), levels of the mitophagy receptors NIX and FUNDC1 and of the autophagosome LC3B were reduced in the ACC of Gclm-KO mice (Gclm-KO+PBS, at P40). […] Taken together, these observations are consistent with an oxidative stress-induced mitophagy deficit in prefrontal parvalbumin interneurons.
It has been shown that miR-137 plays a functional role in modulating synaptic function and in regulating the expression of the NIX and FUNDC1 mitophagy receptors.
In view of the detrimental effects of oxidative stress on integrity of parvalbumin interneurons, miR-137 expression level as well as mitophagy during preweaning and pubertal stages of development, it was evaluated whether MitoQ treatment, a selective mitochondria targeted-antioxidant, could rescue these deficits in young KO mice. Treatment with MitoQ (P21-P40) in Gclm-KO+GBR mice normalized NIX, FUNDC1 and LC3B expression levels as well as miR-137 expression intensity, when compared to WT values (FIG. 7). […] Thus, MitoQ can reverse the oxidative stress induced miR-137 overexpression, mitophagy and parvalbumin interneuron impairment, highlighting that the upregulation of miR-137 and subsequent mitophagy defect constitutes the molecular mechanism underlying the oxidative stress-induced parvalbumin interneuron impairment.

[1] = ACC of Gclm-KO+GBR animals, following treatment with MitoQ
[2] = MitoQ P21-P40, Gclm-KO+GBR mice, ACC, compared to WT values (FIG. 7)

COC1=C(OC)C(=O)C(CCCCCCCCCC[PH](c2ccccc2)(c2ccccc2)c2ccccc2)=C(C)C1=O [MitoQ, mitoquinone]
abnormalities in cell body numbers of parvalbumin interneurons [1]: restored to WT levels
staining intensity of parvalbumin interneuron processes [1]: restored to WT levels
FUNDC1 expression level [2]: normalized
LC3B expression level [2]: normalized
NIX expression level [2]: normalized
miR-137 expression intensity [2]: normalized

From patent publication US20230235397A1, “METHODS FOR CLASSIFICATION AND TREATMENT OF PSYCHOTIC DISORDER SUBJECTS” (CENTRE HOSPITALIER UNIVERSITAIRE VAUDOIS (CHUV), priority 2019, published 2023)
